Test results taken from the RepoRT retention time repository.

assay: HILIC, Waters ACQUITY UPLC BEH Amide, 100 × 2.1 mm, 1.7 µm; A: water + 0.125% formic acid + 10 mM ammonium formate; B: 5% water + 95% acetonitrile + 0.125% formic acid + 10 mM ammonium formate; gradient (min/%B) 0/100 2/100 7.7/70 9.5/40 10.25/30 12.75/100 17/100; details: stereoisomer not certain

Compound | LC retention time [min]
O=C1Nc2ccc(Cl)cc2C(c2ccccc2Cl)=NC1O (stereo not given) [Lorazepam] | 1.33
CCCCc1nc(Cl)c(CO)n1Cc1ccc(-c2ccccc2-c2nn[nH]n2)cc1 [Losartan] | 1.27
CCOC(=O)OC1(C(=O)OCCl)CCC2C3CCC4=CC(=O)C=CC4(C)C3C(O)CC21C (stereo not given) [Loteprednol Etabonate] | 0.97
CN1CCN(C2=Nc3ccccc3Oc3ccc(Cl)cc32)CC1 [Loxapine] | 2.18
CC(C(=O)O)c1ccc(CC2CCCC2=O)cc1 (stereo not given) [Loxoprofen] | 1.09
O=c1[nH]c(=O)c2nccnc2[nH]1 [Lumazine] | 2.49
NCCCCC(N)C(=O)NCC(=O)O (stereo not given) [Lys-Gly] | 9.84
CC(C)C(NC(=O)C(N)CCCCN)C(=O)O (stereo not given) [Lys-Val] | 9.38
NCCCCC(N)C(=O)O (stereo not given) [Lysine] | 9.54
CC(C)c1ccc2c(c1)c(SC(C)(C)C)c(CC(C)(C)C(=O)O)n2Cc1ccc(Cl)cc1 [MK-886] | 0.96
NC(=O)C=CC(=O)O [Maleamic acid] | 1.12
Cc1occc(=O)c1O [Maltol] | 1.32
OCC1OC(OC2C(CO)OC(O)C(O)C2O)C(O)C(O)C1O (stereo not given) [Maltose] | 8.75
CNCCCC12CCC(c3ccccc31)c1ccccc12 [Maprotiline] | 2.66
CC1(C)SC2C(N=CN3CCCCCC3)C(=O)N2C1C(=O)O (stereo not given) [Mecillinam] | 4.28
CC(=O)C1(O)CCC2C3CC(C)C4=CC(=O)CCC4(C)C3CCC21C (stereo not given) [Medroxyprogesterone] | 1.01
CC(=O)OC1(C(C)=O)CCC2C3C=C(C)C4=CC(=O)CCC4(C)C3CCC21C (stereo not given) [Megestrol Acetate] | 0.96
COc1ccc2[nH]cc(CCNC(C)=O)c2c1 [Melatonin] | 1.24
CCCC(C)(COC(N)=O)COC(N)=O [Meprobamate] | 1.25
CCC(=O)C(CC(C)N(C)C)(c1ccccc1)c1ccccc1 (stereo not given) [Methadone] | 2
CNC(C)Cc1ccccc1 (stereo not given) [Methamphetamine] | 3.33
Cc1ccccc1-n1c(C)nc2ccccc2c1=O [Methaqualone] | 1.1
C=CCC1(C(C)C#CCC)C(=O)NC(=O)N(C)C1=O (stereo not given) [Methohexital] | 6.9
COc1ccc(OC)c(C(O)C(C)N)c1 (stereo not given) [Methoxamine] | 4.75
CC12CCC(=O)C=C1CCC1C2CCC2(C)C1CCC2(C)O (stereo not given) [Methyltestosterone] | 1.04
CCC1(CC)C(=O)NCC(C)C1=O (stereo not given) [Methyprylon] | 1.18
Cc1ncc2n1-c1ccc(Cl)cc1C(c1ccccc1F)=NC2 [Midazolam] | 1.29
NC(=O)CS(=O)C(c1ccccc1)c1ccccc1 (stereo not given) [Modafinil] | 1.27
CC(=O)Nc1ccc2c(c1)Cc1ccccc1-2 [N-2-Fluorenylacetamide] | 4.74

Results, then the compound that gave them:

LC retention time [min] | Compound
2.12 | CC1CCN(CCCC(=O)c2ccc(F)cc2)CC1 [Melperone]
4.24 | CC12CC3CC(C)(C1)CC(N)(C3)C2 [Memantine]
1.03 | COc1cc(C)nc(-n2nc(C)cc2OC)n1 [Mepirizole]
2.96 | Cc1cccc(C)c1NC(=O)C1CCCCN1C (stereo not given) [Mepivacaine]
4.24 | CN1CCCCC1CCN1c2ccccc2Sc2ccc(S(C)=O)cc21 (stereo not given) [Mesoridazine]
5.44 | CN(C)C(=N)N=C(N)N [Metformin]
7.37 | CSCCC(N)C(=O)O (stereo not given) [Methionine]
8.62 | CS(=O)CCC(N)C(=O)O (stereo not given) [Methioninesulfoxide]
7.67 | CN(Cc1cnc2nc(N)nc(N)c2n1)c1ccc(C(=O)NC(CCC(=O)O)C(=O)O)cc1 (stereo not given) [Methotrexate]
1.04 | CCC=CCC1C(=O)CCC1CC(=O)OC (stereo not given) [Methyl jasmonate]
6.22 | CC(O)C(C)C(=O)O (stereo not given) [Methyl-3-hydroxybutyric acid]
1.43 | COC(=O)c1cc(O)c(O)c(O)c1 [Methylgallate]
5.29 | COC(=O)CN [Methylglycinate]
4.23 | COC(=O)C(N)Cc1ccc(O)cc1 (stereo not given) [Methyltyrosinate]
1.17 | Cc1ncc([N+](=O)[O-])n1CCO [Metronidazole]
0.99 | CCC(C)C(=O)OC1CCC=C2C=CC(C)C(CCC3CC(O)CC(=O)O3)C21 (stereo not given) [Mevastatin]
1 | CC#CC1(O)CCC2C3CCC4=CC(=O)CCC4=C3C(c3ccc(N(C)C)cc3)CC21C (stereo not given) [Mifepristone]
8.12 | OCCN1CC(O)C(O)C(O)C1CO (stereo not given) [Miglitol]
3.23 | CCN(CC)C(=O)C1(c2ccccc2)CC1CN (stereo not given) [Milnacipran]
1.6 | Cc1[nH]c(=O)c(C#N)cc1-c1ccncc1 [Milrinone]
3.08 | CN1CCN2c3ncccc3Cc3ccccc3C2C1 (stereo not given) [Mirtazapine]

LC retention time [min] | Compound
2.03 | O=C(NCCN1CCOCC1)c1ccc(Cl)cc1 [Moclobemide]
1.19 | CCCCCCCCC=CCCCCCCCC(=O)OCC(O)CO (stereo not given) [Monoolein]
1.24 | CCOc1cc(N)c(Cl)cc1C(=O)NCC1CN(Cc2ccc(F)cc2)CCO1 (stereo not given) [Mosapride]
4.69 | COc1c(N2CC3CCCNC3C2)c(F)cc2c(=O)c(C(=O)O)cn(C3CC3)c12 (stereo not given) [Moxifloxacin]
3.28 | COc1nc(C)nc(Cl)c1NC1=NCCN1 [Moxonidine]
8.28 | CC(OC1C(N)C(O)OC(CO)C1O)C(=O)O (stereo not given) [Muramic acid]
5.62 | CN(C)c1nc2c(ncn2C2OC(CO)C(O)C2O)c(=O)[nH]1 (stereo not given) [N2,N2-Dimethylguanosine]
6.4 | CNc1nc2c(ncn2C2OC(CO)C(O)C2O)c(=O)[nH]1 (stereo not given) [N2-Methylguanosine]
1.48 | CC(C)=CCNc1ncnc2c1ncn2C1OC(CO)C(O)C1O (stereo not given) [N6-Isopentenyladenosine]
8.87 | CC(=O)NCCCCNCCCN [N8-Acetylspermidine]
9.1 | CN(C)C(CCCN=C(N)N)C(=O)O (stereo not given) [N,N-Dimethylarginine]
1.29 | CN(C)C=O [N,N-Dimethylformamide]
7.4 | CN(C)CC(=O)O [N,N-Dimethylglycine]
3.48 | OCC1OC(n2cnc3c(NC4CCCC4O)ncnc32)C(O)C1O (stereo not given) [N-2-Hydroxycyclopentyladenosine]
4.01 | O=C(O)CNC(=O)c1ccco1 [N-(2-Furoyl)glycine]
8.16 | CC(=O)NC(CCCN=C(N)N)C(=O)O [N-.alpha.-Acetyl-L-arginine]
1.43 | CC(=O)NCCc1c[nH]c2ccc(O)cc12 [N-Acetyl-5-hydroxytryptamine]
8.11 | CC(=O)NC(CC(=O)O)C(=O)NC(CCC(=O)O)C(=O)O (stereo not given) [N-Acetyl-Asp-Glu]
8.35 | CC(=O)NCCC(=O)NC(Cc1cnc[nH]1)C(=O)O [N-Acetyl-L-carnosine]
8.18 | CC(=O)N[C@@H](CCC(N)=O)C(=O)O [N-Acetyl-L-glutamine]
